Laboratory results: PMC12052742, “Engineering a newly identified alcohol dehydrogenase from Sphingobium Sp. for efficient utilization of nicotinamide cofactors biomimetics” (Bioresources and Bioprocessing, 2025)

Experiments:
Format in all cases: biochemical, Sphingobium sp. SYK-6
SpADH2 [1] = test: Cofactor spectrum of syringyl alcohol oxidation (HPLC specific activity), WT; settings: 1a 5 mM, cofactor 7.5 mM, pH 7.5, 30℃, 5 µg SpADH2, 1 h
Experimental: Fig. 2 Cofactor spectrum of syringyl alcohol oxidation catalyzed by SpADH2. The darkness of the background color for each cofactor stands for the activity of SpADH2 utilizing various cofactors. (a) NAD(P) ^+ and NMN^+ are shown in purple background. (b) tsNCBs are shown in cyan background. The evaluation of cofactor spectrum of SpADH2 was carried out under following conditions: 50 mM PBS buffer (pH 7.5) and 30℃, with 1a (5 mM) as substrate and different cofactors (7.5 mM) as cofactor. For NAD(P)^+ and NMN^+, 0.05 µg SpADH2 was added, and for tsNCBs, 5 µg SpADH2 was added. The results were analyzed by HPLC after 1 h reaction
(§1) Specific activity of SpADH2 in cofactor spectrum study was determined by HPLC analysis. PBS (pH 7.5) buffer was pre-heated at 30°C for 15 min. For NAD(P)^+ and NMN^+, 0.05 µg SpADH2 was added to PBS buffer (100 µL). For tsNCBs, 5 µg SpADH2 was added. A final concentration of 7.5 mM cofactor was added to the reaction mixture. Finally, a final concentration of 5 mM substrate was added to start the reaction. The reactions were conducted at 30°C.
(§2) One unit of enzyme activity is defined as the amount of enzyme required to form 1 µmol 1b per minute at pH 7.5 and 30°C. Same reaction without cofactor was used as a blank control.

SpADH2 variant A290I = test: Cofactor spectrum (HPLC specific activity), variant A290I; settings: 1a 5 mM, cofactor 7.5 mM, pH 7.5, 30℃, 5 µg enzyme
Experimental: Fig. 8 Cofactor spectrums of SpADH2 and its variants. The darkness of color for each cofactor stands for the activity. For each cofactor cube, top left: WT, top right: H43L, bottom left: A290I, bottom right: H43L/A290I. (a) Natural cofactors and NMN^+ are shown in purple. (b) tsNCBs are shown in cyan. The evaluation of cofactor spectrum was carried out under following conditions: 50 mM PBS buffer (pH 7.5) and 30℃, with 1a (5 mM) as substrate and different cofactors (7.5 mM) as cofactor. For NAD(P)^+ and NMN^+, 0.05 µg enzyme was added, and for tsNCBs, 5 µg enzyme was added. The results were analyzed by HPLC after 1 h reaction
as §1, §2

SpADH2 [2] = test: Substrate spectrum (spectrophotometric specific activity, fluorescent probe); settings: cofactor p-BANA^+ 7.5 mM, substrate 5 mM, 5 µg SpADH2, pH 7.5, 30℃, 1 h
Experimental: Fig. 3 Substrate spectrum of SpADH2 utilizing (a) NAD^+ and (b) p-BANA^+. The darkness of the background color for each substrate stands for the activity of SpADH2 with NAD^+ (purple) or p-BANA^+ (cyan) as cofactor. The evaluation of substrate spectrum of SpADH2 was carried out under following conditions: 50 mM PBS buffer (pH 7.5) and 30℃, with 1a (5 mM) as substrate. For NAD^+(2 mM), 0.05 µg SpADH2 was added, and for p-BANA^+(7.5 mM), 5 µg SpADH2 was added. After 1 h, reactions were visualized by 0.2 mM florescent probes (2-[2-(1,4-dihydro-1-methyl-3-quinolinyl)ethenyl]-1,3,3-trimethyl-3H-indolium)
(§3) Specific activity of SpADH2 in substrate spectrum study was measured spectrophotometrically. PBS (pH 7.5) buffer was pre-heated at 30°C for 15 min. For NAD^+, 0.05 µg SpADH2 was added to the PBS buffer (100 µL), and a final concentration of 2 mM NAD^+ was added. For tsNCBs cofactor p-BANA^+, 5 µg SpADH2 and a final concentration of 7.5 mM p-BANA^+ was added. The mixture was carried out in a 96-well microplate, and a final concentration of 5 mM substrate was added to start the reaction. The microplate was incubated in 30°C for 1 h. Florescent probes (2-[2-(1,4-dihydro-1-methyl-3-quinolinyl)ethenyl]-1,3,3-trimethyl-3H-indolium) in a final concentration of 0.2 mM (100 µL) was added (Scheme S1), and the microplate was placed in a microplate reader immediately for measurement under 537 nm (Fomin et al. [2016]).
One unit of enzyme activity is defined as the amount of enzyme required to form 1 µmol of reduced florescent probes per minute at pH 7.5 and 30°C. Each reaction was repeated in triplet. Same reaction without substrate was used as a blank control. The molar absorbance coefficient (ε) was detected as […] with NADH as the reduced cofactor and 60,801 µM^− 1·cm^− 1 with p-BANAH as the reduced cofactor.

[3] = tested on: NC(=O)c1ccc[n+]([C@@H]2O[C@H](COP(=O)([O-])OP(=O)(O)OC[C@H]3O[C@@H](n4cnc5c(N)ncnc54)[C@H](O)[C@@H]3O)[C@@H](O)[C@H]2O)c1; test: Cofactor kinetic assay, WT; settings: other: WT, cofactor (= label) varied, 1a fixed at 5 mM, pH 7.5, 30°C
Experimental: as §3
Kinetic analysis of SpADH2 and its variants were carried out following Michaelis-Menten equation or Michaelis-Menten excess substrate inhibition equation. For of the substrate kinetic assays, concentrations of cofactors were fixed at 5 mM for NAD^+ and 7.5 mM for p-BANA^+. For cofactor kinetic assays, the concentration of 1a was fixed at 5 mM.
Specific activity was determined spectrophotometrically as above except that gradient 1a (0−20 mM) or cofactor (0−35 mM) concentrations were applied.
Cofactor specificity ratio (CSR) represents the ratio of catalytic efficiency of p-BANA^+ to NAD^+ for each enzyme, and relative specificity (RS) stands for the CSR ratio of variants to WT (King et al. [2020]).

| Compound | utilization of the tsNCB by SpADH2 (in words) (SpADH2 [1]) | utilization of the tsNCB (in words) (SpADH2 variant A290I) | activity of SpADH2 with the tsNCB as cofactor (SpADH2 [1]) [U/g] | other results |
| --- | --- | --- | --- | --- |
| NC(=O)c1ccc[n+](Cc2cccc([N+](=O)[O-])c2)c1 [m-BNNA^+, meta-3-carbamoyl-1-(3-nitrobenzyl)pyridin-1-ium] | not effectively utilized | capable of utilizing |  |  |
| NC(=O)c1ccc[n+](Cc2ccccc2Br)c1 [o-BBrNA^+] |  |  | 1.3 |  |
| Cc1ccccc1C[n+]1cccc(C(N)=O)c1 [o-BMNA^+, ortho-3-carbamoyl-1-(2-methylbenzyl)pyridin-1-ium] | No detectable activity |  |  |  |
| NC(=O)c1ccc[n+](Cc2ccccc2[N+](=O)[O-])c1 [o-BNNA^+] |  | capable of utilizing | 1.92 |  |
| Cc1ccc(C[n+]2cccc(C(N)=O)c2)cc1 [p-BMNA^+, para-3-carbamoyl-1-(4-methylbenzyl)pyridin-1-ium] | No detectable activity |  |  |  |
| NC(=O)c1ccc[n+](Cc2ccc([N+](=O)[O-])cc2)c1 [p-BNNA^+] |  | capable of utilizing | 2.25 |  |
| COc1cc(CO)cc(OC)c1O [syringyl alcohol] |  |  |  | substrate preference of SpADH2 (in words) (SpADH2 [2]): optimal substrate |
| SpADH2 WT (Sphingobium sp. SYK-6) |  |  |  | Km [3]: 28 ± 3 µM |
